Test results published in patent US9199943B2, “2-(poly-substituted aryl)-6-amino-5-halo-4-pyrimidinecarboxylic acids and their use as herbicides” (Dow AgroSciences, LLC., priority 2006, dated 2015).

Experiments:
Assay type in all cases: in vivo
[1] = tested on: GALAP = Galium aparine; experiment: Postemergence herbicidal activity in cereal crops, Galium aparine; conditions: post-emergence, 480 h, post-emergent, after 20-22 days; for pest or weed control at 35 g/ha: 35 g ai/ha; for pest or weed control at 17.5 g/ha: 17.5 g ai/ha; for pest or weed control at 70 g/ha: 70 g ai/ha
Protocol: (§1) Seeds of the desired test plant species were planted in Sun Gro MetroMix® 306 planting mixture, which typically has a pH of 6.0 to 6.8 and an organic matter content of about 30 percent, in plastic pots with a surface area of 103.2 square centimeters. When required to ensure good germination and healthy plants, a fungicide treatment and/or other chemical or physical treatment was applied. The plants were grown for 7-36 days in a greenhouse with an approximate 14 hour photoperiod which was maintained at about 18° C. during the day and 17° C. during the night. Nutrients and water were added on a regular basis and supplemental lighting was provided with overhead metal halide 1000-Watt lamps as necessary. The plants were employed for testing when they reached the second or third true leaf stage.
(§2) A weighed amount, determined by the highest rate to be tested, of each test compound was placed in a 25 mL glass vial and was dissolved in 8 mL of a 97:3 v/v mixture of acetone and DMSO to obtain concentrated stock solutions. […] The concentrated stock solutions obtained were diluted with 16 mL of an aqueous mixture containing acetone, water, isopropyl alcohol, DMSO, Agri-dex crop oil concentrate, and Triton X-77 surfactant in a 64.7:26.0:6.7:2.0:0.7:0.01 v/v ratio to obtain spray solutions containing the highest application rates. Additional application rates were obtained by serial dilution of 12 mL of the high rate solution into a solution containing 4 mL of 97:3 v/v mixture of acetone and DMSO and 8 mL of an aqueous mixture containing acetone, water, isopropyl alcohol, DMSO, Agri-dex crop oil concentrate, and Triton X-77 surfactant in a 48.5:39.0:10.0:1.5:1.0:0.02 v/v ratio to obtain ½×, ¼×, ⅛× and 1/16× rates of the high rate. Compound requirements are based upon a 12 mL application volume at a rate of 187 L/ha. Formulated compounds were applied to the plant material with an overhead Mandel track sprayer equipped with a 8002E nozzles calibrated to deliver 187 L/ha over an application area of 0.503 square meters at a spray height of 18 inches (43 cm) above average plant canopy height. Control plants were sprayed in the same manner with the blank.
(§3) The treated plants and control plants were placed in a greenhouse as described above and watered by sub-irrigation to prevent wash-off of the test compounds. After 20-22 days, the condition of the test plants as compared with that of the untreated plants was determined visually and scored on a scale of 0 to 100 percent where 0 corresponds to no injury and 100 corresponds to complete kill.

[2] = tested on: HORVS = barley (Hordeum vulare); experiment: Postemergence herbicidal activity in cereal crops, barley; conditions: post-emergence, 480 h, post-emergent, barley (crop), after 20-22 days; for pest or weed control at 35 g/ha: 35 g ai/ha; for pest or weed control at 17.5 g/ha: 17.5 g ai/ha; for pest or weed control at 70 g/ha: 70 g ai/ha
Protocol: as §1, §2, §3

[3] = tested on: VERPE = Veronica persica; experiment: Postemergence herbicidal activity in cereal crops, Veronica persica; conditions: post-emergence, 480 h, post-emergent, after 20-22 days; for pest or weed control at 35 g/ha: 35 g ai/ha; for pest or weed control at 17.5 g/ha: 17.5 g ai/ha; for pest or weed control at 70 g/ha: 70 g ai/ha
Protocol: as §1, §2, §3

[4] = tested on: PAPRH = Papaver rhoeas; experiment: Postemergence herbicidal activity in cereal crops, Papaver rhoeas; conditions: post-emergence, 480 h, post-emergent, after 20-22 days; for pest or weed control at 35 g/ha: 35 g ai/ha; for pest or weed control at 17.5 g/ha: 17.5 g ai/ha; for pest or weed control at 70 g/ha: 70 g ai/ha
Protocol: as §1, §2, §3

[5] = tested on: TRZAS = wheat (Triticum aestivum); experiment: Postemergence herbicidal activity in cereal crops, wheat; conditions: post-emergence, 480 h, post-emergent, wheat (crop), after 20-22 days; for pest or weed control at 35 g/ha: 35 g ai/ha; for pest or weed control at 17.5 g/ha: 17.5 g ai/ha; for pest or weed control at 70 g/ha: 70 g ai/ha
Protocol: as §1, §2, §3

[6] = tested on: ORYSA = rice (Orysa sativa var. Japonica); experiment: Herbicidal activity in transplanted paddy rice, rice; conditions: Oryza sativa, 480 h, water-injected paddy, rice (crop), after 20-22 days; for pest or weed control at 17.5 g/ha: 17.5 g ai/ha; for pest or weed control at 70 g/ha: 70 g ai/ha; for pest or weed control at 140 g/ha: 140 g ai/ha; for pest or weed control at 35 g/ha: 35 g ai/ha
Protocol: Weed seeds or nutlets of the desired test plant species were planted in puddled soil (mud) prepared by mixing a non-sterilized mineral soil (28 percent silt, 18 percent clay, and 54 percent sand, with a pH of about 7.3 to 7.8 and an organic matter content of about 1.0 percent) and water at a ratio of 100 kg of soil to 19 L of water. The prepared mud was dispensed in 250 mL aliquots into 480 mL non-perforated plastic pots with a surface area of 91.6 square centimeters leaving a headspace of 3 centimeters in each pot. Rice seeds were planted in Sun Gro MetroMix® 306 planting mixture, which typically has a pH of 6.0 to 6.8 and an organic matter content of about 30 percent, in plastic plug trays. Seedlings at the second or third leaf stage of growth were transplanted into 650 mL of mud contained in 960 mL non-perforated plastic pots with a surface area of 91.6 square centimeters 4 days prior to herbicide application. The paddy was created by filling the 3 centimeter headspace of the pots with water. When required to ensure good germination and healthy plants, a fungicide treatment and/or other chemical or physical treatment was applied. The plants were grown for 4-14 days in a greenhouse with an approximate 14 hour photoperiod which was maintained at about 29° C. during the day and 26° C. during the night. Nutrients were added as Osmocote (17:6:10, N:P:K+minor nutrients) at 2 g (grams) per cup. Water was added on a regular basis to maintain the paddy flood, and supplemental lighting was provided with overhead metal halide 1000-Watt lamps as necessary. The plants were employed for testing when they reached the second or third true leaf stage. A weighed amount, determined by the highest rate to be tested, of each test compound was placed in a 120 mL glass vial and was dissolved in 20 mL of acetone to obtain concentrated stock solutions. […] The concentrated stock solutions obtained were diluted with 20 mL of an aqueous mixture containing 0.01% Tween 20 (v/v). Application rates of ½×, ¼×, ⅛× and 1/16× of the high rate were obtained by injecting an appropriate amount of the stock solution into the aqueous layer of the paddy. Control plants were treated in the same manner with the solvent blank. The treated plants and control plants were placed in a greenhouse as described above and water was added as needed to maintain a paddy flood. After 20-22 days, the condition of the test plants as compared with that of the untreated plants was determined visually and scored on a scale of 0 to 100 percent where 0 corresponds to no injury and 100 corresponds to complete kill.

## CCOc1c(Cl)ccc(-c2nc(N)c(Cl)c(C(=O)OC)n2)c1F [Compound 1, 6-amino-5-chloro-2-(4-chloro-3-ethoxy-2-fluorophenyl)-pyrimidine-4-carboxylic acid methyl ester]
[1]
  pest or weed control at 35 g/ha: 99%
[2]
  pest or weed control at 35 g/ha: 0%
[3]
  pest or weed control at 35 g/ha: 20%
[4]
  pest or weed control at 35 g/ha: 100%
[5]
  pest or weed control at 35 g/ha: 0%
[6]
  pest or weed control at 17.5 g/ha: 5%

## COC(=O)c1nc(-c2c(F)cc(Cl)c(OC)c2F)nc(N)c1Cl [Compound 2, 6-amino-5-chloro-2-(4-chloro-2,6-difluoro-3-methoxy-phenyl)pyrimidine-4-carboxylic acid methyl ester]
[1]
  pest or weed control at 35 g/ha: 95%
[2]
  pest or weed control at 35 g/ha: 0%
[3]
  pest or weed control at 35 g/ha: 50%
[4]
  pest or weed control at 35 g/ha: 100%
[5]
  pest or weed control at 35 g/ha: 0%
[6]
  pest or weed control at 70 g/ha: 0%

## COC(=O)c1nc(-c2ccc(Cl)c(OC)c2F)nc(N)c1Cl [Compound 3, 6-amino-5-chloro-2-(4-chloro-2-fluoro-3-methoxyphenyl)-pyrimidine-4-carboxylic acid methyl ester]
[1]
  pest or weed control at 17.5 g/ha: 95%
[2]
  pest or weed control at 17.5 g/ha: 0%
[3]
  pest or weed control at 17.5 g/ha: 99%
[4]
  pest or weed control at 17.5 g/ha: 100%
[5]
  pest or weed control at 17.5 g/ha: 0%
[6]
  pest or weed control at 17.5 g/ha: 0%

## COC(=O)c1nc(-c2ccc(Cl)c(OC)c2Cl)nc(N)c1Cl [Compound 6, 6-Amino-5-chloro-2-(2,4-dichloro-3-methoxyphenyl)pyrimidine-4-carboxylic acid methyl ester]
[1]
  pest or weed control at 70 g/ha: 85%
[2]
  pest or weed control at 70 g/ha: 0%
[3]
  pest or weed control at 70 g/ha: 99%
[4]
  pest or weed control at 70 g/ha: 99%
[5]
  pest or weed control at 70 g/ha: 10%
[6]
  pest or weed control at 17.5 g/ha: 0%

## COC(=O)c1nc(-c2ccc(Cl)c(C(F)F)c2F)nc(N)c1Cl [Compound 7, 6-Amino-5-chloro-2-(4-chloro-3-difluoromethyl-2-fluorophenyl)pyrimidine-4-carboxylic acid methyl ester]
[1]
  pest or weed control at 17.5 g/ha: 60%
[2]
  pest or weed control at 17.5 g/ha: 0%
[3]
  pest or weed control at 17.5 g/ha: 95%
[4]
  pest or weed control at 17.5 g/ha: 95%
[5]
  pest or weed control at 17.5 g/ha: 15%
[6]
  pest or weed control at 140 g/ha: 0%

## COC(=O)c1nc(-c2ccc(Cl)c(N(C)C)c2F)nc(N)c1Cl [Compound 8, 6-Amino-5-chloro-2-(4-chloro-3-dimethylamino-2-fluorophenyl)pyrimidine-4-carboxylic acid methyl ester]
[1]
  pest or weed control at 35 g/ha: 70%
[2]
  pest or weed control at 35 g/ha: 0%
[3]
  pest or weed control at 35 g/ha: 95%
[4]
  pest or weed control at 35 g/ha: 100%
[5]
  pest or weed control at 35 g/ha: 15%
[6]
  pest or weed control at 35 g/ha: 0%

## COC(=O)c1nc(-c2ccc3c(c2F)OCO3)nc(N)c1Cl [Compound 9, 6-Amino-5-chloro-2-(4-fluorobenzo[1,3]dioxol-5-yl)pyrimidine-4-carboxylic acid methyl ester]
[1]
  pest or weed control at 70 g/ha: 90%
[2]
  pest or weed control at 70 g/ha: 0%
[3]
  pest or weed control at 70 g/ha: 30%
[4]
  pest or weed control at 70 g/ha: 40%
[5]
  pest or weed control at 70 g/ha: 15%
[6]
  pest or weed control at 35 g/ha: 0%

## COC(=O)c1nc(-c2ccc(Cl)c(OCC(F)F)c2F)nc(N)c1Cl [Compound 10, 6-Amino-5-chloro-2-[4-chloro-3-(2,2-difluoroethoxy)-2-fluorophenyl]-pyrimidine-4-carboxylic acid methyl ester]
[1]
  pest or weed control at 70 g/ha: 65%
[2]
  pest or weed control at 70 g/ha: 0%
[3]
  pest or weed control at 70 g/ha: 20%
[4]
  pest or weed control at 70 g/ha: 95%
[5]
  pest or weed control at 70 g/ha: 5%
[6]
  pest or weed control at 140 g/ha: 0%

## COC(=O)c1nc(-c2ccc(Cl)c(OC)c2F)nc(N)c1Br [Compound 13, 6-amino-5-bromo-2-(4-chloro-2-fluoro-3-methoxyphenyl)-pyrimidine-4-carboxylic acid methyl ester]
[1]
  pest or weed control at 17.5 g/ha: 90%
[2]
  pest or weed control at 17.5 g/ha: 0%
[3]
  pest or weed control at 17.5 g/ha: 95%
[4]
  pest or weed control at 17.5 g/ha: 100%
[5]
  pest or weed control at 17.5 g/ha: 0%
[6]
  pest or weed control at 70 g/ha: 0%
